From patent publication US8889662B2, “Method to alter sex ratios in avian offspring” (University of Georgia Research Foundation, Inc., priority 2009, dated 2014)

Legend:
[1] = tested on: zebra finch (Taeniopygia guttata); assay: Example 2: disruption of ovulation, oviposition and embryo development after injection, zebra finches; type: in vivo; settings: 20 ug injection
Method: Zebra finch (Taeniopygia guttata) pairs obtained from a breeding colony maintained at The University of Georgia were housed in individual cages and provided feed and water ad libidumn. Birds were kept under a 14 hour (h) light (L):10 h dark (D) light schedule. Egg-laying was monitored daily and eggs marked to record sequence order. Females were injected intraperitoneally after the first or second egg of the clutch was laid with one of three treatments: 20 μg of CORT dissolved in 50 μl peanut oil and 10% ethanol (CORT), 20 μg of progesterone dissolved in […] and 10% ethanol (P), or 50 μl of control peanut oil (C). A fourth set of females received no injection treatment (UN). […] The follicle ovulating 5 hours after injection, was laid approximately 36 hours after injection (FIG. 3). Ovulating follicles exposed to treatments were laid as the 3rd or 4th egg in the sequence (3rd egg if treatment was administered on the day the 1st egg was laid and the 4th egg in the sequence if treatment was administered on the day the 2nd egg was laid). Eggs were allowed to incubate in the nest for 8-12 days prior to collection to allow sufficient embryonic development for DNA extraction and molecular sexing analyses. Occasionally these treatments disrupted the oviposition immediately following the injection. Females that delayed oviposition after treatment were excluded from analysis because it was not possible to determine whether the egg collected the following day was from the ovulation event that occurred immediately following injection or from a delayed oviposition of the follicle ovulated the day prior to injection. Females that delayed oviposition were allowed to complete the clutch after which the treatment was repeated during the next clutch. […] Only 1/10 females treated with progesterone laid successfully. For this reason, progesterone treatments were eliminated from further analyses.

female chickens = settings: at the time of meiotic segregation, Correa et al. 2005; cited from earlier work
[2] = tested on: zebra finches and pigeons; settings: literature; cited from earlier work

| Compound | eggs with delayed oviposition [1] [eggs] | eggs with no visible development [1] [eggs] | females in which ovulation and oviposition were disrupted [1] [%] | females that laid successfully ([1]; number of treated females) | sex ratio after acute progesterone treatment (female chickens) | sex ratio after testosterone treatment [2] |
| --- | --- | --- | --- | --- | --- | --- |
| CC(=O)[C@H]1CC[C@H]2[C@@H]3CCC4=CC(=O)CC[C@]4(C)[C@H]3CC[C@]12C [progesterone] | 5 | 4 | 90 | 1/10 | induced a sex ratio skew towards females | – |
| C[C@]12CC[C@H]3[C@@H](CCC4=CC(=O)CC[C@@]43C)[C@@H]1CC[C@@H]2O [testosterone] | – | – | – | – | – | induced a skew towards males |
